How the values were obtained:
Type in all cases: cell-based
Conditions in all cases: Homo sapiens
[1] = test system: CEACAM5-positive SK-CO-1 cells; test: Cell viability assay (Cell Titer-Glo, six days) on SK-CO-1
Experimental: (§1) Cytotoxicity effects of the ADC on the cancer cell lines were measured by cell viability assays. Cells were seeded in a volume of 90 μL in 96-well plates the day before treatment. Test compounds (ADCs or free payloads) were formulated at 10-fold the starting concentration in cell culture medium. Test compounds were serial diluted (1:4) and 10 μL of each dilution was added to the cells in triplicates. Plates were cultured at 37° C. in a CO2 incubator for six days. For cell viability measurement, Cell Titer-Glo® reagent (Promega™ Corp, Madison, WI) was added to each well, and plates processed according to the manufacturer's instructions. Luminescence signals were measured using a Varioskan plate reader (Thermo Fisher). Luminescence readings were converted to % viability relative to untreated cells. Data was fitted with non-linear regression analysis, using log (inhibitor) vs. response, variable slope, 4-parameter fit equation using Genedata Screener or GraphPad Prism. Data is shown as % relative cell viability vs. molar compound concentration, error bars indicating standard deviation (SD) of duplicates or triplicates. Geometric mean values of IC50s derived from multiple experiments were calculated.
(§2) A fold reduction in IC50, defined as a S[…], was calculated by dividing the IC50 against CEACAM5-negative MDA-MB-231 cells by the IC50 against each CEACAM5-positive cell line (see Table 6). […]

[2] = test system: CEACAM5-positive SNU-16 cells; test: Cell viability assay (Cell Titer-Glo, six days) on SNU-16
Experimental: as §1, §2

[3] = test system: CEACAM5-positive MKN-45 cells; test: Cell viability assay (Cell Titer-Glo, six days) on MKN-45
Experimental: as §1, §2

[4] = test system: CEACAM5-positive LS174T cells; test: Cell viability assay (Cell Titer-Glo, six days) on LS174T
Experimental: as §1

[5] = test system: CEACAM5-negative MDA-MB-231 cells; test: Cell viability assay (Cell Titer-Glo, six days) on MDA-MB-231
Experimental: as §1, §2

`CC[C@@]1(O)C(=O)OCc2c1cc1n(c2=O)Cc2c-1nc1cc(F)c(C)c3c1c2[C@@H](N)CC3` [Payload, (1S,9S)-1-Amino-9-ethyl-5-fluoro-1,2,3,9,12,15-hexahydro-9-hydroxy-4-methyl-10H, 13H-benzo (de) pyrano (3′,4′: 6,7) indolizino (1,2-b) quinoline-10,13-dione] was tested, and the IC50 ([1]; 144 h, read-out: SK-CO-1 IC50 [M], n ≥ 2, SK-CO-1, CEACAM5 positive, six days, geometric mean) was 2.2e-10 M, the Emax ([1]; SK-CO-1, at the highest tested compound concentration, read-out: Maximal effect compared to untreated controls, SK-CO-1) was -97% and the IC50 ([2]; 144 h, read-out: SNU-16 IC50 [M], n ≥ 2, SNU-16, CEACAM5 positive, six days, geometric mean) was 2.9e-10 M. The Emax ([2]; SNU-16, at the highest tested compound concentration, read-out: Maximal effect compared to untreated controls, SNU-16) was -99%, the IC50 ([3]; 144 h, read-out: MKN-45 IC50 [M], n ≥ 2, MKN-45, CEACAM5 positive, six days, geometric mean) was 6.6e-10 M and the Emax ([3]; MKN-45, at the highest tested compound concentration, read-out: Maximal effect compared to untreated controls, MKN-45) was -100%. It also gave an IC50 ([4]; 144 h, read-out: LS174T IC50 [M], n ≥ 2, CEACAM5 positive, six days, geometric mean) of 3e-10 M, an Emax ([4]; at the highest tested compound concentration, read-out: Maximal effect compared to untreated controls, LS174T) of -91% and an IC50 ([5]; 144 h, read-out: MDA-MB-231 IC50 [M], n ≥ 3, MDA-MB-231, CEACAM5 negative, six days, n/a = below −50% effect cut-off) of 6e-10 M. For the same molecule, the Emax ([5]; MDA-MB-231, at the highest tested compound concentration, read-out: Maximal effect compared to untreated controls, MDA-MB-231) was -91%.
